Entries after “also recorded” stand apart in the source; their conditions may differ.
Legend:
[1] = test system: blood eosinophils, neutrophils, circulating type 2 inflammatory mediators; assay: BAC study: blood eosinophils, neutrophils and circulating type 2 inflammatory mediators; type: in vivo, human
Method: Circulating Biomarkers: circulating biomarker samples are collected at time points according to Table 1 and Table 2. Biomarker measurements are performed in serum and plasma samples to determine effects on biomarkers of inflammatory diseases pathobiology or relevant physiological and pathogenic processes. The biomarkers studied are ones believed to be relevant to the pathophysiology of diseases, target engagement, mechanism of action of REGN3500 (and/or combination therapy) and possible toxicities. Biomarkers studied in the blood may include but need not be limited to, IL-33, soluble ST2, calcitonin, and MMP12.

[2] = test system: BAC-induced inflammatory gene expression signatures in sputum; assay: Bronchial allergen challenge (BAC) with HDM in patients with mild allergic asthma: gene expression signatures (mRNA) in induced sputum; type: in vivo, human; conditions: for eosinophil gene signature scores: FIG. 14, post bronchial allergen challenge, across treatment arms; for allergen-induced eosinophilic signature and broader type 2 inflammatory signature, including CCL26, CCL17, and SIGLEC8: monotherapy, REGN3500 IV 10 mg/kg single dose, dupilumab SC 600 mg day 1, 300 mg day 15, sputum after BAC
Method: Bronchial allergen challenge involves patient inhalation of allergen that results in a biphasic airway response, which is characterized by an early (30 minutes to 2 hours post-allergen challenge) and a late (approximately 3 to 8 hours post-allergen challenge) decline in forced expiratory volume over 1 second (FEV1).
Enrolled patients undergo BAC during the screening period, and at 4 and 8 weeks after administration of the first doses of study drug(s). The effects of the study drugs on BAC-induced lung inflammation are assessed via measurements of sputum molecular signatures (mRNAs and proteins). The sputum molecular signatures are assessed before BAC (baseline) and after BAC (post-BAC) at screening and at weeks 4 and 8 after treatment initiation (FIG. 1). The BAC-induced difference in the sputum signatures before and after BAC are evaluated at screening (screening change) and at weeks 4 and 8 post-treatment (week 4 change and week 8 change) will be observed. Since both REGN3500 and dupilumab display long half-lives, BAC change is evaluated at both week 4 and week 8 in the current study, to monitor the durability of the potential impact of study drug treatment on airway inflammation. The effect of study drug treatment on induced sputum gene signatures is evaluated by the difference between the BAC-induced screening change and the BAC-induced week 4 change (screening to week 4 change) and by the difference between the BAC-induced screening change and the BAC-induced week 8 change (screening to week 8 change).
Part 1 of this study is a randomized, double-blind, placebo-controlled, double-dummy parallel group study in mild persistent allergic asthmatic patients to assess the effect of REGN3500, dupilumab, REGN3500 plus dupilumab combination, or placebo on lung inflammation (as measured by sputum cytokine mRNAs) and measurements of the late phase inflammatory airway response to a BAC using HDM. Patients are randomized to one of the following treatment groups: REGN3500 (IV single dose); dupilumab (SC 2 doses, Q2W); combination REGN3500 (IV single dose) plus dupilumab (SC 2 doses, Q2W), and placebo (IV single dose and SC 2 doses, Q2W).
Because the treatment groups in this study include a first clinical dosing of REGN3500 plus dupilumab combination, Part 1 is performed in 2 phases to address any potential safety issues. The first 8 patients are randomized 1:1:1:1 to receive study drug. On day 1: patients in the REGN3500 group receive REGN3500 IV 10 mg/kg, followed by dupilumab-matching placebo SC, patients in the dupilumab group receive REGN3500-matching placebo IV followed by a loading dose of dupilumab SC 600 mg (2 injections of 300 mg), patients in the REGN3500 plus dupilumab combination will receive REGN3500 10 mg/kg IV, followed by dupilumab SC 600 mg (2 injections of 300 mg), and patients in the placebo group will receive REGN3500-matching placebo IV, followed by 2 injections of dupilumab-matching placebo SC.
On day 15 (week 2), patients assigned to the dupilumab group or the REGN3500 plus dupilumab combination group receive dupilumab SC 300 mg and all other patients receive dupilumab-matching placebo SC.
All enrolled patients return to the clinic on day 24± 2 days and on day 52 ± 2 days to provide a baseline induced sputum sample. If an adequate sputum sample cannot be obtained, patients may return 72 hours later for a second attempt to produce baseline sputum. Pre-BAC sputum collection must occur at least 72 hours prior to the BAC. Seventy-two hours after the baseline induced sputum sample is collected, on day 29 ± 2 days and on day 57 ± 2 days, respectively, patients return to the clinic, and measurements of FEV1, and FeNO are performed prior to undergoing BAC with HDM. Sputum induction is performed 8 hours and 24 hours after inhaled BAC at both the days 29 ± 2 (week 4) and 57 ± 2 days (week 8) visits. […]

[3] = test system: HDM-driven lung inflammation; assay: Chronic house dust mite (HDM) model of lung inflammation; type: in vivo; conditions: FIG. 5; for pro-inflammatory cytokines and chemokines (lung panel hIL-4, IL-5, IL-1b, TNFα, IFNg, GROa, MCP-1): chronic HDM model; for inflammation in chronic HDM model of lung inflammation (lung eosinophils, lung neutrophils): with and without anti-IL-33 treatment
From the text: Data is presented showing levels of lung eosinophils and lung neutrophils in the HDM model with and without anti-IL-33 treatment. A heat map of a lung cytokine gene panel is presented showing levels of hIL-4, IL-5, IL-1b, TNFα, IFNg, GROa, and MCP-1. Alveolar SMA testing data is presented as well.
Treatment with REGN3 500 suppressed pro-inflammatory cytokines and chemokines. […] Other data presented includes a heat map of lung of cytokine panel showing levels of hIL-4, IL-5, IL-1b, TNFα, IFNg, GROa, and MCP-1. Alveolar SMA testing was also performed.

| Substance | neutrophils ([1]; in vivo) | other circulating type 2 inflammatory mediators ([1]; in vivo) | blood eosinophils ([1]; pharmacodynamic effect) | type 2 inflammatory cytokine and chemokine genes induced by BAC (IL-5, IL-13, Eot-3 (CCL26), TARC (CCL17), CCL1, FCER2, SIGLEC8) ([2]; FIG. 9, genes induced at 8 or 24 hours after allergen challenge, sputum) | eosinophil signature genes in sputum (ADARB1, ASB2, CLC, HDC, IL1RL1, PTPN7, SIGLEC8, SYNE1, VSTM1) ([2]; FIG. 11) | neutrophil signature genes ([2]; FIG. 11, sputum) | type 2 inflammatory signature genes in sputum (IL-4, IL-13, CCL26, CCL13, CCL17, CCL11, POSTN, IL-5, IL-9) ([2]; FIG. 12) | eosinophil gene signature scores [2] | decrease of type 2 signature scores ([2]; FIG. 15, compared with the fluticasone treatment arm) | allergic asthma signature genes (BC042385 ... RHOH) ([2]; FIG. 16, at 8 and/or 24 hours post BAC) | top allergic asthma signature genes induced by BAC at 24 hours (ASAP1-IT1 ... CCL17, CCL13, CCL26, SIGLEC8, IL13, IL5, PTGDS, RD3) ([2]; FIG. 17, screening vs treatment) | allergen-induced eosinophilic signature and broader type 2 inflammatory signature, including CCL26, CCL17, and SIGLEC8 [2] | pro-inflammatory cytokines and chemokines (lung panel hIL-4, IL-5, IL-1b, TNFα, IFNg, GROa, MCP-1) ([3]; listed as REGN3 500) | pro-inflammatory cytokines and chemokines (lung panel hIL-4, IL-5, IL-1b, TNFα, IFNg, GROa, MCP-1) ([3]; listed as anti-IL-33) | inflammation in chronic HDM model of lung inflammation (lung eosinophils, lung neutrophils) [3] | inflammation in chronic HDM model of lung inflammation (lung eosinophils, lung neutrophils) ([3]; listed as anti-IL-33) | genes suppressed by REGN3500 (many of them) ([2]; albeit with different dynamics) |
| --- | --- | --- | --- | --- | --- | --- | --- | --- | --- | --- | --- | --- | --- | --- | --- | --- | --- |
| REGN3500: human anti-IL-33 antibody; HCVR/LCVR SEQ ID NOs: 2 and 10, heavy/light chain SEQ ID NOs: 18 and 20 | No anti-IL-33 mediated reduction | no anti-IL-33 mediated reduction | reduction in blood eosinophils was a consistent pharmacodynamic effect | suppressed | suppressed; also recorded: suppression | No anti-IL-33 (REGN3500) treatment-mediated effects were noted; also recorded: did not have an effect | suppressed; also recorded: suppression | able to reduce | lower decrease | affected | suppressed | significantly inhibited | suppressed | suppresses | reduced inflammation | reduces inflammation | – |
| dupilumab: human anti-IL-4R antibody; HCVR/LCVR SEQ ID NOs: 27 and 28, heavy/light chain SEQ ID NOs: 29 and 30 [reference compound] | – | – | – | – | – | – | – | able to reduce | – | – | – | significantly inhibited | – | – | – | – | also suppressed |

Reference: patent publication US20230340101A1, “METHODS FOR TREATING OR PREVENTING ALLERGIC ASTHMA BY ADMINISTERING AN IL-33 ANTAGONIST AND/OR AN IL-4R ANTAGONIST” (SANOFI BIOTECHNOLOGY, priority 2019, published 2023)
